Reference: US20240182445A1 (ONO PHARMACEUTICAL CO., LTD., priority 2019, published 2024)
Entries after “also recorded” stand apart in the source; their conditions may differ.

Columns and labels:
[1] = Human hepatic microsomal intrinsic clearance; format: in vitro ADME; conditions: human hepatic microsomes
Procedure: (§1) These assays were performed according to known methods as generally described in the following references: Conde-Ceide et al. ACS Med. Chem. Lett. 2015, 6, 716-720; Morris et al. J. Med. Chem. 2014, 57, 10192-10197; and Bubser et al. ACS Chem. Neurosci. 2014, 5, 920-942. Abbreviations which have been used in the descriptions of the following tables are; PPB is plasma protein binding; BHB is brain homogenate binding; and CLint is intrinsic clearance in hepatic microsomes.

CYP1A2 = target: T1, CYP1A2 (Homo sapiens, UniProt P05177); test: P450 inhibition 1A2; format: in vitro ADME
T1 sequence (P05177 1-516): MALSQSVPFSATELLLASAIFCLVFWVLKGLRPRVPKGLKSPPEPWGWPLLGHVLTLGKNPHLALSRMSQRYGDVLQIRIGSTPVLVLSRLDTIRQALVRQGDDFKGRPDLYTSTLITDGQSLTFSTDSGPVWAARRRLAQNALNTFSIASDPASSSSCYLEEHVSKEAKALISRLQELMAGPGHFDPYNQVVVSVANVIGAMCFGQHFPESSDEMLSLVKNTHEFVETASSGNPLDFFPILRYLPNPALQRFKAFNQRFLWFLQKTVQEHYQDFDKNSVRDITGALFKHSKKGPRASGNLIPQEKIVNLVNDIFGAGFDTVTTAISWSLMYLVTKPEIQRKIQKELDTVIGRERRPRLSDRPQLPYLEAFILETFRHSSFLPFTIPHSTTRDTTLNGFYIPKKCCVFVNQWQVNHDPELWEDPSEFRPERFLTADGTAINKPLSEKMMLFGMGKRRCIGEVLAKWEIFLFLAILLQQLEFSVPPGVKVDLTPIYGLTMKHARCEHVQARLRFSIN
Procedure: as §1

[2] = test system: MK-801-induced deficits in the Novel Object Recognition Task; test: MK-801-induced novel object recognition test; format: in vivo, Sprague-Dawley rats; conditions: rats; 0.1 mg/kg, 0.3 mg/kg and 1 mg/kg; MK-801 0.2 mg/kg
Procedure: The term “MK-801-induced novel object recognition test” herein refers to the experiment to evaluate in vivo efficacy in the schizophrenic cognitive impairment animal model. The detail method is described below. MK-801 is also known as dizocilpine.
MK-801-Induced Novel Object Recognition Test:
Testing was performed using 6-week-old male Sprague Dawley rats. On the testing day, rats were habituated at the empty box for 10 minutes individually. The disclosed compound was administered orally 1 h prior, followed by administration of MK-801 (0.2 mg/kg, s.c.) 30 min prior to the acquisition trial for 10 min. The retention trial for 10 min was performed with the intertrial interval for 80 min. The rat was allowed to explore the same objects in the acquisition trial. In the retention trial, one of the objects used in the acquisition trial was replaced with a novel one. The exploration time of licking, sniffing or touching was measured in the retention trial. Efficacy of each compound at the dose of 0.3, 1, 3 or 10 mg/kg p.o. (n=12-15) was determined by the recognition index (exploration time to the novel object/total exploration time). The scores of MK-801/vehicle and MK-801/compound-treated groups were statistically analyzed by Dunnett's test.
MK-801 induced disruptions of Novel Object Recognition
Drugs: Test compounds were formulated in 10% Tween 80/90% sterile water vehicle. […]

plasma protein = test: Rat plasma protein binding (PPB); format: in vitro ADME
Procedure: as §1

CYP2D6 = CYP2D6 (Homo sapiens, UniProt P10635); test: P450 inhibition 2D6; format: in vitro ADME
Sequence of CYP2D6 (P10635 whole entry): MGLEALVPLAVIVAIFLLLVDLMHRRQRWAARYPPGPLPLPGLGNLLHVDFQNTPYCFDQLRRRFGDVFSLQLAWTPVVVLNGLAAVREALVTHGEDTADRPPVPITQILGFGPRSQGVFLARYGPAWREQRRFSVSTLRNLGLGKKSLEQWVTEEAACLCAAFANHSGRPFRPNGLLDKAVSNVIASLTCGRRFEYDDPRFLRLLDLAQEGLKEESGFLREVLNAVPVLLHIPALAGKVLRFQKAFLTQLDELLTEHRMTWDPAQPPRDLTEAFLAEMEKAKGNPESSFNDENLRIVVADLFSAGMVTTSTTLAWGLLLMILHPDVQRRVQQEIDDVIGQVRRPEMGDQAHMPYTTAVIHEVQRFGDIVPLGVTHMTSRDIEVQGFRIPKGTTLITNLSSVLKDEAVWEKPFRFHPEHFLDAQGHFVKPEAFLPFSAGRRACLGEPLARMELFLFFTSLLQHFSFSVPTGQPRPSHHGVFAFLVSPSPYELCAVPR
Procedure: as §1

- CLint scaled [1]: 16 mL/min/kg
- IC50 (CYP1A2): 8.6 µM
- Rat PPB (% bound) (plasma protein): 98.4 % bound
- IC50 (CYP2D6): 4.5 µM
Compound: CC(=O)N[C@H]1CC[C@@H](n2ncc(Cl)c2C(=O)Nc2ncc(C#Cc3ccccc3)cc2C)CC1 [Compound 12, 1-(cis-4-acetamidocyclohexyl)-4-chloro-N-(3-methyl-5-(phenylethynyl)pyridin-2-yl)-1H-pyrazole-5-carboxamide]
- reversal of MK-801-induced deficits in the Novel Object Recognition Task [2]: dose-dependently reversed; also recorded: caused reversal
